Experimental data reported in BindingDB's records for patent US9745282 (Merck Sharp & Dohme Corp, 2017).

Target: T1, Cytochrome P450 11B1, mitochondrial (Homo sapiens, UniProt P15538)
T1 sequence (P15538 whole entry): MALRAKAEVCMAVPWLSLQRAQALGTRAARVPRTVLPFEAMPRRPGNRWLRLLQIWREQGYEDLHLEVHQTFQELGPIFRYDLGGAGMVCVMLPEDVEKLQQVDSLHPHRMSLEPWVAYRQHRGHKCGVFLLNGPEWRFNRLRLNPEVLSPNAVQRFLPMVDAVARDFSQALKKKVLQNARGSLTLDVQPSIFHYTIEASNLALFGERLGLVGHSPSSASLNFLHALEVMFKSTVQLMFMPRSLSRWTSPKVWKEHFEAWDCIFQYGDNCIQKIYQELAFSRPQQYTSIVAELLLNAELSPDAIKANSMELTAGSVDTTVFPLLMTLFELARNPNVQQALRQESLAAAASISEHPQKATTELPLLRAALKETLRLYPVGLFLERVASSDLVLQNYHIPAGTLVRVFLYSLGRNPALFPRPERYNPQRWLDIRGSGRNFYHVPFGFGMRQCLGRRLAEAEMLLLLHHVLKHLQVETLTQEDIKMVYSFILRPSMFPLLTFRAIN

Row | IC50 [nM] | Structure (SMILES)
1 | 1410 | O=C(N1CCc2cc(-c3cncc(F)c3)cc(F)c21)C(F)(F)F [US9745282, 33]
2 | 68 | CC(=O)N1CCc2cc(-c3cnccc3C)cc(F)c21 [US9745282, 15]
3 | 270 | CC(=O)N1CCc2cc(-c3cncc(F)c3C)cc(Cl)c21 [US9745282, 8]
4 | 525 | O=C(N1CCc2cc(-c3cncc(F)c3)cc(Cl)c21)C(F)(F)F [US9745282, 32]
5 | 3720 | CC(C)C(=O)N1CCc2cc(-c3cncc4ccccc34)ccc21 [US9745282, 30]
